Data from patent US20050107316A1, “Agent for inhibiting development or progress of proliferative diseases and especially cancer diseases and pharmaceutical composition containing said agent” (priority 2002, published 2005).

Assays:
MCF-7 cells = type: cell-based, human
Description: (§1) Cancer cell lines HeLa S3 (cervix), MCF-7 (breast) and Saos-2 (osteosarcoma) were grown at 37° C. in 5% CO2 in Ham's F 12, RPMI 1640 and McCoy's 5a medium, respectively containing 10% FBS, 2 mM L-glutamine. To assay for growth inhibition, exponentially growing cells (0.3-2.5×10^4) were seeded into 24-well plates. On the following day cells were incubated with peptides at varying concentrations without serum for 3 h followed by addition of complete medium. On day 3, 6 and 8 cells were treated again and harvested on day 3, 6, 8 and 10 to determine cell numbers using a Hemacytometer. Cell viability was assessed by trypan blue staining. Each experiment was repeated at least three times.

Saos-2 cells = assay: Growth inhibition assay with peptides, Saos-2; type: cell-based, human; details: Saos-2, 5 μM
Description: as §1

HeLa S3 cells [1] = assay: Growth inhibition assay with peptides, HeLa S3; type: cell-based, human; details: HeLa S3, 5 μM
Description: as §1

[2] = test system: primary epithelial cells (HMEC); assay: Growth inhibition with peptides, primary epithelial cells; type: cell-based, human
HeLa S3 cells [3] = assay: Cell cycle analysis and count of mitotic cells after peptide treatment, HeLa S3; type: cell-based, human
Description: Cell cycle analysis was performed using a Cycle TEST™ PLUS DNA reagent kit (Becton Dickinson) according to the manufacturer's instructions. Briefly, cells were washed with PBS, treated with RNase A and stained with propidium iodide (PI). The analysis was performed using a Becton Dickinson FACScan flow cytometer. Using the MODFIT LT 2.0 software (Verity Software House, Topsham, Me.) for each individual sample 30,000 cells were analyzed.
(§2) For staining cells were grown in slide flasks and treated with peptides for 24 h. Then, cells were fixed in 4% paraformaldehyde for 30 min, permeabilized in 0.2% Triton X-100 for 20 min and stained with α-tubulin (Serotec/Biozol, Eching) 1:100, polyclonal rabbit PLK1 1:100, or monoclonal α-tubulin (Sigma) 1:100. Stained cells were analyzed with a confocal laser scan microscope (CLSM) or a fluorescence microscope.

MCF-7 and HeLa S3 cells = assay: Annexin V apoptosis assay and DNA staining after peptide treatment; type: cell-based, human
Description: Cells were seeded into 6-well plates, allowed to attach overnight, and then treated with different peptides at a concentration of 10 μM. Cells were trypsinized after 16 h and incubated with Annexin V according to the manufacturer's recommendations (Mo Bi Tech).

HeLa S3 cells [4] = assay: DNA and tubulin staining of polo-box-treated cells; type: cell-based, human
Description: as §2

PLK1 = assay: In vitro kinase assay with PLK1 purified from Sf 9 cells; type: biochemical, human
Description: PLK1 purified from Sf 9 cells was incubated with 0.5-1 μg of PLK1-specific substrates and 2 μCi of […] for 20 min at 37° C. in kinase buffer (20 mM HEPES pH 7.4, 150 mM KCl, 10 mM MgCl2, 1 mM EGTA, 0.5 mM DTT, 5 mM NaF, 0.1 mM Na3VO4 and 100 μM ATP).

Substance: H-WVSKWVDYSDKYGLGYQLCDRQIKIWFQNRRMKWKK-OH [Peptide P1]
- Concentration with general toxic effect (MCF-7 cells): above 20 μM
- Concentrations that started to inhibit proliferation (MCF-7 cells; MCF-7): above 1 μM
- Range of dose-dependent inhibition of proliferation (MCF-7 cells; MCF-7): 1 to 10 µM
- Inhibitory effect on cell proliferation (MCF-7 cells; MCF-7, 5 μM): most prominent in MCF-7 cells
- Growth behavior (MCF-7 cells; MCF-7, 0.01 to 0.5 μM): did not affect the growth behavior
- Inhibitory effect on cell proliferation (Saos-2 cells): intermediate effect
- Inhibitory effect on cell proliferation (HeLa S3 cells [1]): little inhibition
- Inhibition of proliferation [2]: to a much lower extent than MCF-7 cells
- Increase of mitotic cells compared to control cells (HeLa S3 cells [3]; HeLa S3, 24 h, 5 μM): 3-4 fold
- Percentage of mitotic cells (HeLa S3 cells [3]; HeLa S3, 24 h, 5 μM): 14.7%
- Increase of cells in G2/M compared to control cells (HeLa S3 cells [3]; HeLa S3, day 6, 5 μM): 25-35%
- Apoptotic cells (MCF-7 and HeLa S3 cells; 10 μM, 16 h annexin V and PI, DNA staining after 1 day): elevated percentage of apoptotic cells
- Apoptotic peak (MCF-7 and HeLa S3 cells; time of treatment): 24 h
- Start of the inhibitory effect (MCF-7 and HeLa S3 cells; time of treatment): 10 h
- Chromosomes (HeLa S3 cells [4]): misaligned, not properly segregated and partially condensed
- Inhibitory effect on phosphorylation (PLK1; 6.25 to 25.0 μM, wild-type compared with mutated form P2): at least two fold more inhibition
- Phosphorylation of substrates by PLK1 (PLK1; 37° C., 20 min): decreased the phosphorylation of substrates clearly
- Inhibitory effect on phosphorylation (PLK1; below 1.56 μM): still exhibited some effect
